Reference: US9822114B2, “Tricyclic oxazolidinone antibiotic compounds” (Idorsia Pharmaceuticals Ltd, priority 2008, dated 2017)

The molecules below were run on M. catarrhalis A894 (assay: Minimal inhibitory concentration (MIC), microdilution method in cation-adjusted Mueller-Hinton Broth (CLSI M7-A7)). Conditions: Moraxella catarrhalis, strain A894.
Type: cell-based
Method: Minimal inhibitory concentrations (MICs; mg/1) were determined in cation-adjusted Mueller-Hinton Broth by a microdilution method following the description given in “Methods for Dilution Antimicrobial Susceptibility Tests for Bacteria that Grow Aerobically”, Approved standard, 7th ed., Clinical and Laboratory Standards Institute (CLSI) Document M7-A7, Wayne, Pa., USA, 2006.

MIC [µg/mL] | SMILES
0.25 | O=C1O[C@H](CNCCC2CN3C(=O)CCc4ccc(F)c2c43)CN1c1ccc2c(c1)OCCO2 (mixture of isomers) [Example 26, (1RS)-1-(2-{[(R)-3-(2,3-dihydro-benzo[1,4]dioxin-6-yl)-2-oxo-oxazolidin-5-ylmethyl]-amino}-ethyl)-9-fluoro-1,2,5,6-tetrahydro-pyrrolo[3,2,1-ij]quinolin-4-one]
≤ 0.031 | CCOC(=O)c1ccc2c3c1ccc(=O)n3C[C@@H]2NCCC[C@H]1CN(c2ccc3c(c2)NC(=O)CS3)C(=O)O1 [Example 119, (R)-4-oxo-1-{3-[(S)-2-oxo-3-(3-oxo-3,4-dihydro-2H-benzo[1,4]thiazin-6-yl)-oxazolidin-5-yl]-propylamino}-1,2-dihydro-4H-pyrrolo[3,2,1-ij]quinoline-7-carboxylic acid ethyl ester]
0.063 | Cl.Cl.O=C1CSc2ccc(N3C[C@@H](CCCNC4CN5C(=O)CN(CCCO)c6ccc(F)c4c65)OC3=O)nc2N1 (mixture of isomers) [Example 202, (RS)-7-fluoro-6-{3-[(R)-2-oxo-3-(3-oxo-3,4-dihydro-2H-pyrido[3,2-b][1,4]thiazin-6-yl)-oxazolidin-5-yl]-propylamino}-1-(3-hydroxypropyl)-1,2,5,6-tetrahydro-pyrrolo[1,2,3-de]quinoxalin-3-one dihydrochloride]
≤ 0.031 | O=C1CSc2ccc(N3C[C@@H](CCNC[C@H]4Cn5c(=O)ccc6nccc4c65)OC3=O)cc2N1 [Example 76, (S)-4-({2-[(R)-2-oxo-3-(3-oxo-3,4-dihydro-2H-benzo[1,4]thiazin-6-yl)-oxazolidin-5-yl]-ethylamino}-methyl)-4,5-dihydro-pyrrolo[3,2,1-de][1,5]naphthyridin-7-one]
